Assays:
Assay type in all cases: cell-based
[1] = biological target: T1, BRS-3 (bombesin receptor subtype-3, BB3), human (Homo sapiens, UniProt P32247); experiment: inhibition of […] MK-5046-induced IP1 accumulation (HTRF) in H1299-hBRS-3 stable cells
T1 construct: gene BRS3
T1 sequence (P32247 1-399): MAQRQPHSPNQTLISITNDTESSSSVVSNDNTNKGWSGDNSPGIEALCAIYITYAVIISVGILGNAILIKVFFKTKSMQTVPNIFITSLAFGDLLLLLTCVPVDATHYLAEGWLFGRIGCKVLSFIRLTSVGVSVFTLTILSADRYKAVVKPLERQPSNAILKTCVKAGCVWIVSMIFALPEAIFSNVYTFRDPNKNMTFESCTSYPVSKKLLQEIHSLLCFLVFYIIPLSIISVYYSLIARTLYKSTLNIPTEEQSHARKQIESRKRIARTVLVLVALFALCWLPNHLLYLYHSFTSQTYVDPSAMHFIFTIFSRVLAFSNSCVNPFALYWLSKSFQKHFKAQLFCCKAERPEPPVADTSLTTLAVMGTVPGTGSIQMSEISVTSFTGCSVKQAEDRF

[2] = biological target: T2, BRS-3 (bombesin receptor subtype-3, BB3), murine (Mus musculus, UniProt O54798); experiment: inhibition of […] MK-5046-induced Ca2+ mobilization (FLIPR) in HEK293-mBRS-3 stable cells; also DMR (IC50 […])
T2 construct: gene Brs3
T2 sequence (O54798 1-399): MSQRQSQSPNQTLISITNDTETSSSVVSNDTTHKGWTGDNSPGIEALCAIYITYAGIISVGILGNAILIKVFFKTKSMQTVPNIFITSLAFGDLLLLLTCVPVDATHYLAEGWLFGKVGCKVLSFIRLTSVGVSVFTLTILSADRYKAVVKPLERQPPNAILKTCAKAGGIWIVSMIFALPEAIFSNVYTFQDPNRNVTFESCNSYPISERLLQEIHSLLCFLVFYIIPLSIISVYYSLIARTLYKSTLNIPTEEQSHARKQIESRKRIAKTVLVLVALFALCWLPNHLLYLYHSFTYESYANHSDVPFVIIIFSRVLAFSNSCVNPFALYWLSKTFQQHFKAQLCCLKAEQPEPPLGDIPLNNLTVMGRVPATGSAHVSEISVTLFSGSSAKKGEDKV

[3] = biological target: T2, BRS-3 (bombesin receptor subtype-3, BB3), murine; experiment: reference peptide antagonist; inhibition of […] MK-5046-induced Ca2+ mobilization (FLIPR) in HEK293-mBRS-3 stable cells

Row | IC50 [1] [nM] | IC50 [2] [nM] | Compound | IC50 [3] [nM]
1 | 841 | 706 | CC(C)=CCc1c(O)ccc(-c2coc3cc(O)cc(O)c3c2=O)c1O [LIA, licoisoflavone A] | 
2 |  |  | Bantag-1 | 2.32

Source: publication PMC11943355, “Identification of a Novel Antagonist of BRS-3 from Natural Products and Its Protective Effects Against H2O2-Induced Cardiomyocyte Injury” (International Journal of Molecular Sciences, 2025)
